Assay [1] relates to purified porcine calpain 2. The assay can be described thus: Calpain-Glo Protease Assay. Format: biochemical. As to conditions: 5 mM CaCl2, 10 min, room temperature; mean of two experiments. An excerpt:
The porcine kidney was obtained from DART Co., Ltd. as part of a program aimed at the effective utilization of livestock by-products in Hokkaido, Japan. The procurement process followed ethical guidelines from Livestock Industry Bureau MAFF-J (ministry of agriculture, forestry and fisheries of Japan) for farm animal use, ensuring compliance with relevant regulations. Two porcine kidneys were rapidly frozen after removal, trimmed free of excess tissue or renal pelvis, and cut into small pieces (approximately 2 × 2 cm) before they thawed. About 250 g of these pieces were homogenized in 1200 mL of ice-cold 20 mM Tris-HCl (pH 8.0) with 5 mM ethylenediaminetetraacetic acid (EDTA), 0.1% 2-mercaptoethanol (2-ME), 0.1 mg/mL Pefabloc SC (MilliporeSigma, Burlington, MA, USA), 40 µg/mL bestatin, and 4 µg/mL pepstatin in a Waring blender HGBSS (Waring; Stamford, CT, USA) at 19,000 rpm using several bursts of 10 sec each with 20 sec cooling periods between each burst. The homogenate was centrifuged at 25,000 × g for 15 min at 4°C, and the supernatant was filtered through glass wool and a 5 µm filter (Merck) to remove floating lipids. The purification procedure was performed according to the method of Thompson and Goll with some minor modifications: the DEAE-cellulose and the DEAE-TSK ToyoPearl 650S columns were substituted with DEAE sepharose fast flow (Merck) and TSKgel DEAE-5PW (30) (Tosoh; Tokyo, Japan) columns, respectively. After purification, calpain-2 was dialyzed, and glycerol was added for freeze-thaw protection. The final buffer formulation was 20 mM imidazole, 5 mM 2-ME, 1 mM EDTA, 1 mM EGTA, and 20% glycerol.
For measurement of inhibitory activities against calpains in vitro, Calpain-Glo Protease Assay (Promega; Madison, WI, USA) was performed using human erythrocyte calpain 1 (MilliporeSigma) and purified porcine calpain 2. Briefly, 24 µL of each calpain diluted with 20 mM Tris-HCl (pH 7.4), 1 µL of each inhibitor, and 25 µL of reaction buffer including CaCl2 in a 96-well plate was incubated for 10 min at room temperature. The final concentration of CaCl2 in the reaction solution was 5 mM. The luminescence was measured using a microplate reader (GloMax Discover System; Promega). IC50 values from two independent experiments were averaged.

Assay [2] deals with RGCs in monkey retinal explants. The assay is described as follows: PI staining and RGC counting in retinal explants under hypoxia/reoxygenation. The assay is classed as cell-based, rhesus macaques (Macaca mulatta). The text has this: Globes were obtained from rhesus macaques (Macaca mulatta) at 1–7 years of age from the Oregon National Primate Research Center (Beaverton, OR, USA). The wide range of ages was unavoidable because they became available from experiments that were unrelated to the present studies. These eyes were acceptable for the purpose of our experiments. The eyes were dissected within 5 hr after death, and excised eyes were soaked in cold Hanks’ balanced salt solution (HBSS; Corning, NY, USA) or Dulbecco’s phosphate-buffered saline (DPBS; Corning). Experimental animals were handled in accordance with the Research in Vision and Ophthalmology Statement for the Use of Animals in Ophthalmic and Vision Research and with the Guiding Principles in the Care and Use of Animals (Department of Health Education and Welfare Publication National Institutes of Health 80−23).
(§1) Retina explant culture was performed as described in our previous report, except for the induction of hypoxia. Briefly, a hypoxic chamber (Coy Laboratory Products, Grass Lake, MI, USA) was controlled at 0.3% oxygen with a 95% N2/5% CO2 gas mixture. Retinas were dissected into fan-shaped explants with 6 or 7 petals (> 5 mm) in HBSS. Each explant was placed with the RGC side facing up on a Millicell organotypic standing insert (0.4 μm, 30 mm diameter, MilliporeSigma) in six-well, culture plates. They were cultured for 2 hr at 37°C under 95% N2/5% CO2 in Neurobasal-A medium supplemented with B27, N2 supplements, 2 mM L-glutamine (Thermo Fisher Scientific, Waltham, MA, USA), and 100 μg/mL primocin (Invivogen, San Diego, CA, USA). Retinal explants were then chamber-cultured under hypoxic conditions for 16 hr in a culture medium with 0.5 mM glucose, under 0.3% oxygen. The retinas were then re-oxygenated for 8 hr in a culture medium with 5.5 mM glucose. Normoxic control retinas were cultured for 24 hr in a culture medium with 5.5 mM glucose. When present, calpain inhibitors (SNJ-1945, PD-151746, C2I, and ABT-957) and cathepsin inhibitors (Odanacatib and SID26681509) in 0.1% DMSO were used at the final concentration of 10 or 100 μM in the medium. BAPTA (Thermo Fisher Scientific) and BAPTA-AM (Thermo Fisher Scientific) were also used at a final concentration of 3 or 10 mM or a final concentration of 100 or 500 μM, respectively.
(§2) All inhibitors and BAPTA were treated simultaneously with hypoxia induction, and BAPTA-AM treatment was 2 hr before hypoxia induction.
To assess the disruption of membrane barrier function, propidium iodide (PI) was utilized. Following hypoxia/reoxygenation treatment, retinal explants were incubated for 20 min in a medium containing a final concentration of 2 μg/ml of PI. For quantitative analysis, the RGC marker, RNA-binding protein with multiple splicing (RBPMS) was used at a 1:100 dilution (PhosphoSolutions, Aurora, CO, USA). RBPMS-positive and PI-positive cells in the ganglion cell layer were counted in 2 images from 2 square areas (775 × 775 μm each) located 3–5 mm and 5–7 mm away from the tips of the fan-shaped retinal flat mounts. The percentage of PI-positive RGCs was calculated as [the number of PI and RBPMS-double positive cells/the number of all RBPMS-positive cells] × 100.

The test system of assay [3] is calpain-specific SBDP150 in nerve fiber layer (NFL). The assay is described as follows: SBDP150 immunostaining of flat-mounted retinal explants under hypoxia/reoxygenation. The assay is classed as cell-based, rhesus macaques (Macaca mulatta). The note with it: H16R8; for Effect on calpain-specific SBDP150-positive staining in NFL: cathepsin inhibitor at 10 or 100 µM. On the procedure:
as §1, §2
Formalin-fixed retinal explants were incubated overnight at −30°C in 1: 4 dilutions of DMSO-ethanol to promote antibody penetration. The explants underwent two cycles of freezing and thawing between −80°C and room temperature in 100% ethanol for 20 min. The retinas were then rehydrated in 70%, 50%, and 15% ethanol and PBS for 20 min each, followed by overnight incubation with 0.2% Triton X-100. The samples were stained with antibodies specific for calpain-specific SBDP150 [8] (1:100 dilution, Senju Pharmaceutical) and β-III tubulin (a neuron marker, 1:500 dilution, Merck). The nerve fiber layer (NFL) was observed approximately 5 mm from the tips of the fan-shaped retinal flat mounts. Confocal images were taken using a model LSM 880 spectral confocal system with a 20x 0.8 NA lens (Carl Zeiss, Oberkochen, Germany).

[4] abbreviates: 16 hr hypoxia/8 hr reoxygenation (H16R8), cathepsin inhibitor at 10 or 100 µM.

Structures are written as SMILES. Entries after “also recorded” stand apart in the source; their conditions may differ.

For the compound `CC(C)(F)C[C@H](N[C@@H](c1ccc(-c2ccc(S(C)(=O)=O)cc2)cc1)C(F)(F)F)C(=O)NC1(C#N)CC1` [Odanacatib], the “IC50 Porcine Calpain 2” value in assay [1] is reported as “No effect”. Also, the “Effect on percentage of PI-positive RGCs” value in assay [2] (setting [4]) is listed as “did not reduce”. The “Effect on calpain-specific SBDP150-positive staining in NFL” value in assay [3] is listed as “Neither Odanacatib nor SID26681509 mitigated the increase”.
Regarding `CCc1ccccc1NC(=O)CSC(=O)NNC(=O)[C@H](Cc1c[nH]c2ccccc12)NC(=O)OC(C)(C)C` [SID26681509], half-maximal inhibition in assay [1] (IC50) required 93.2 µM. In addition, the “Effect on percentage of PI-positive RGCs” value in assay [2] (setting [4]) is on record as “did not reduce”. Besides, in assay [3], the “Effect on calpain-specific SBDP150-positive staining in NFL” value is recorded as “Neither Odanacatib nor SID26681509 mitigated the increase”.
In assay [1], `COCCOCCOC(=O)N[C@@H](CC(C)C)C(=O)N[C@@H](Cc1ccccc1)C(=O)C(=O)NC1CC1` [SNJ-1945] gave a half-inhibitory concentration (IC50) of 0.072 µM. For the same compound, the “Effect on percentage of PI-positive RGCs” value in assay [2] (H16R8, calpain inhibitor at 100 µM) is on record as “significantly decreased; also recorded: demonstrated efficacy in reducing PI-positive RGCs”. Besides, the “Effect on calpain-specific SBDP150 staining in NFL (calpain activation)” value in assay [3] (calpain inhibitor at 100 µM) is “demonstrated efficacy in reducing calpain activation”.
